{"source": "patent US20230372318A1", "about": "“METHODS FOR TREATING A SUBJECT HAVING MULTIPLE SYSTEM ATROPHY” (Theravance Biopharma R&D IP, LLC, priority 2022, published 2023)", "tested_on": "subjects with primary autonomic failures (MSA, PD, or PAF) and symptomatic nOH", "test": "Phase 3 22-week randomized withdrawal study in symptomatic nOH (Example 7)", "assay_type": "in vivo, human", "design": "OHSA composite score, LS Mean / OHSA composite score, Mean / OHSA composite score, Median / OHSA composite score, LS Mean Difference / OHDAS item 1 (standing for a short time) score, Mean / OHDAS item 1 (standing for a short time) score, Median / OHDAS item 1 (standing for a short time) score, LS Mean / OHDAS item 1 (standing for a short time) score, LS Mean Difference: scale not given here", "settings": "MSA subjects; for OHSA composite score, LS Mean / OHSA composite score, Mean / OHSA composite score, Median / OHSA composite score, LS Mean Difference: change at week 22, end of 6-week double-blind period; for OHSA composite score, LS Mean Difference / OHDAS item 1 (standing for a short time) score, LS Mean Difference: vs placebo; for OHDAS item 1 (standing for a short time) score, LS Mean / OHDAS item 1 (standing for a short time) score, Mean / OHDAS item 1 (standing for a short time) score, Median / OHDAS item 1 (standing for a short time) score, LS Mean Difference: week 22, end of 6-week double-blind period", "experimental": "The study consisted of a 16-week open-label (OL) treatment period with ampreloxetine followed by a 6-week double-blind randomized withdrawal period where subjects were administered either ampreloxetine or placebo.\nEligible subjects were either (i) completers of the study of Example 6 (“Completers Group”), or (ii) symptomatic nOH subjects meeting all applicable study inclusion criteria and none of the applicable exclusion criteria (“De Novo Group”).\nA 4-week screening period applied to the De Novo Group only and the Screening visit was conducted in clinic for all De Novo Group subjects.\nA total of 203 subjects entered this study (170 subjects from Example 6 (85 from the ampreloxetine group and 85 from the placebo group) and 33 de novo subjects). During the OL period, 55 subjects discontinued treatment. At 16 weeks, 64 subjects were randomized to the ampreloxetine group (6 subjects discontinued the study) and 64 subjects were randomized to the placebo group (3 subjects discontinued the study). A total of 119 subjects completed the study. Of the 128 subjects entering the randomized period, 40 subjects had MSA (31%); 68 subjects had PD (53%); and 20 subjects had PAF (16%) (in each category, the subjects were split equally between ampreloxetine and placebo).\nBeginning on Day 2, subjects received a single dose of 10 mg ampreloxetine once daily (QD) and continued thereafter for the 16-week duration of the OL treatment period. Following this 16-week OL treatment period, subjects were randomized to either continue on the active treatment or placebo (“PBO”) for a period of 6 weeks.\nSubjects enrolled into the OL period of the study had visits scheduled for Day 15, Day 29, and every 4 weeks thereafter for assessments as outlined in the Schedule of Study Procedures. […] Those subjects not meeting this continuation criterion were discontinued and underwent an end of study visit. The end of study visit was completed within 2 weeks from the date of the last dose.\nFollowing the completion of a total of 16 weeks OL treatment with ampreloxetine (V6), subjects were assessed for randomization in a 1:1 manner. Eligible subjects received 6 weeks of double-blind treatment of ampreloxetine or PBO once daily. Only subjects with OHSA #1 score of ≤7 were eligible for randomization for the double-blind treatment period.\nExploratory assessments included: orthostatic standing test; NMSS; EQ-5D-5L; HADS; and BSFC-s. For subjects with PD, exploratory assessments included: Unified Parkinson's Disease Rating Scale (UPDRS); and Parkinson's Disease Questionaire-8 (PDQ-8). For subjects with MSA, exploratory assessments included: Unified Multiple System Atrophy Rating Scale (UMSARS); and Composite Autonomic Symptom Score-31 (COMPASS-31).\nThe secondary endpoints included: • (a) Change from baseline in OHSA #1 at Week 6 post randomization (V9, D155); • (b) Change from baseline in OHSA composite score at Week 6 post randomization (V9, D155); • (c) Change from baseline in OHDAS composite score at Week 6 post randomization (V9, D155); • (d) Change from baseline in PGI-S at Week 6 post randomization (V9, D155); • (e) Change from baseline in percentage of time spent in standing position as measured by a wearable device at Week 6 post randomization (V9, D155); and • (f) Change from baseline in average number of steps taken as measured by a wearable device at Week 6 post randomization (V9, D155).", "data": [{"compound": "Fc1cc(F)c(OCc2ccccc2C2CCNCC2)c(F)c1", "note": "[Ampreloxetine, 4-[2-(2,4,6-trifluorophenoxymethyl)phenyl]piperidine]", "values": [{"measurement": "OHSA composite score, LS Mean", "setting": "<65 Years", "result": 0.55}, {"measurement": "OHSA composite score, Mean", "setting": "<65 Years", "result": 0.8}, {"measurement": "OHSA composite score, Median", "setting": "<65 Years", "result": 0.4}, {"measurement": "OHSA composite score, LS Mean Difference", "setting": "<65 Years", "result": "−1.09"}, {"measurement": "OHDAS item 1 (standing for a short time) score, LS Mean", "setting": "<65 Years", "result": "−0.5"}, {"measurement": "OHDAS item 1 (standing for a short time) score, Mean", "setting": "<65 Years", "result": 0.0}, {"measurement": "OHDAS item 1 (standing for a short time) score, Median", "setting": "<65 Years", "result": 0.0}, {"measurement": "OHDAS item 1 (standing for a short time) score, LS Mean Difference", "setting": "<65 Years", "result": "−2.9"}, {"measurement": "OHSA composite score, LS Mean", "setting": ">=65 Years", "result": "−0.60"}, {"measurement": "OHSA composite score, Mean", "setting": ">=65 Years", "result": "−0.75"}, {"measurement": "OHSA composite score, Median", "setting": ">=65 Years", "result": "−0.70"}, {"measurement": "OHSA composite score, LS Mean Difference", "setting": ">=65 Years", "result": "−2.17"}, {"measurement": "OHDAS item 1 (standing for a short time) score, LS Mean", "setting": ">=65 Years", "result": "−0.4"}, {"measurement": "OHDAS item 1 (standing for a short time) score, Mean", "setting": ">=65 Years", "result": "−0.3"}, {"measurement": "OHDAS item 1 (standing for a short time) score, Median", "setting": ">=65 Years", "result": 0.0}, {"measurement": "OHDAS item 1 (standing for a short time) score, LS Mean Difference", "setting": ">=65 Years", "result": "−1.0"}, {"measurement": "OHSA composite score, LS Mean", "setting": "Female", "result": 0.2078}, {"measurement": "OHSA composite score, Mean", "setting": "Female", "result": 0.23}, {"measurement": "OHSA composite score, Median", "setting": "Female", "result": 0.00}, {"measurement": "OHSA composite score, LS Mean Difference", "setting": "Female", "result": "−1.3996"}, {"measurement": "OHDAS item 1 (standing for a short time) score, LS Mean", "setting": "Female", "result": 0.2}, {"measurement": "OHDAS item 1 (standing for a short time) score, Mean", "setting": "Female", "result": 0.3}, {"measurement": "OHDAS item 1 (standing for a short time) score, Median", "setting": "Female", "result": 0.0}, {"measurement": "OHDAS item 1 (standing for a short time) score, LS Mean Difference", "setting": "Female", "result": "−1.0"}, {"measurement": "OHSA composite score, LS Mean", "setting": "MSA diagnosis <1.3 years", "result": 0.73}, {"measurement": "OHSA composite score, Mean", "setting": "MSA diagnosis <1.3 years", "result": 0.67}, {"measurement": "OHSA composite score, Median", "setting": "MSA diagnosis <1.3 years", "result": 0.70}, {"measurement": "OHSA composite score, LS Mean Difference", "setting": "MSA diagnosis <1.3 years", "result": "−1.24"}, {"measurement": "OHDAS item 1 (standing for a short time) score, LS Mean", "setting": "MSA diagnosis <1.3 years", "result": 0.7}, {"measurement": "OHDAS item 1 (standing for a short time) score, Mean", "setting": "MSA diagnosis <1.3 years", "result": 0.1}, {"measurement": "OHDAS item 1 (standing for a short time) score, Median", "setting": "MSA diagnosis <1.3 years", "result": 0.0}, {"measurement": "OHDAS item 1 (standing for a short time) score, LS Mean Difference", "setting": "MSA diagnosis <1.3 years", "result": "−2.7"}, {"measurement": "OHSA composite score, LS Mean", "setting": "MSA diagnosis >=1.3 years", "result": "−0.67"}, {"measurement": "OHSA composite score, Mean", "setting": "MSA diagnosis >=1.3 years", "result": "−0.64"}, {"measurement": "OHSA composite score, Median", "setting": "MSA diagnosis >=1.3 years", "result": "−0.10"}, {"measurement": "OHSA composite score, LS Mean Difference", "setting": "MSA diagnosis >=1.3 years", "result": "−1.78"}, {"measurement": "OHDAS item 1 (standing for a short time) score, LS Mean", "setting": "MSA diagnosis >=1.3 years", "result": "−0.6"}, {"measurement": "OHDAS item 1 (standing for a short time) score, Mean", "setting": "MSA diagnosis >=1.3 years", "result": "−0.4"}, {"measurement": "OHDAS item 1 (standing for a short time) score, Median", "setting": "MSA diagnosis >=1.3 years", "result": 0.0}, {"measurement": "OHDAS item 1 (standing for a short time) score, LS Mean Difference", "setting": "MSA diagnosis >=1.3 years", "result": "−0.7"}, {"measurement": "OHSA composite score, LS Mean", "setting": "MSA-C", "result": 1.10}, {"measurement": "OHSA composite score, Mean", "setting": "MSA-C", "result": 0.76}, {"measurement": "OHSA composite score, Median", "setting": "MSA-C", "result": 0.50}, {"measurement": "OHSA composite score, LS Mean Difference", "setting": "MSA-C", "result": "−0.68"}, {"measurement": "OHDAS item 1 (standing for a short time) score, LS Mean", "setting": "MSA-C", "result": 0.9}, {"measurement": "OHDAS item 1 (standing for a short time) score, Mean", "setting": "MSA-C", "result": 0.7}, {"measurement": "OHDAS item 1 (standing for a short time) score, Median", "setting": "MSA-C", "result": 0.0}, {"measurement": "OHDAS item 1 (standing for a short time) score, LS Mean Difference", "setting": "MSA-C", "result": "−1.0"}, {"measurement": "OHSA composite score, LS Mean", "setting": "MSA-P", "result": "−0.50"}, {"measurement": "OHSA composite score, Mean", "setting": "MSA-P", "result": "−0.39"}, {"measurement": "OHSA composite score, Median", "setting": "MSA-P", "result": 0.05}, {"measurement": "OHSA composite score, LS Mean Difference", "setting": "MSA-P", "result": "−1.72"}, {"measurement": "OHDAS item 1 (standing for a short time) score, LS Mean", "setting": "MSA-P", "result": "−1.2"}, {"measurement": "OHDAS item 1 (standing for a short time) score, Mean", "setting": "MSA-P", "result": "−0.7"}, {"measurement": "OHDAS item 1 (standing for a short time) score, Median", "setting": "MSA-P", "result": 0.0}, {"measurement": "OHDAS item 1 (standing for a short time) score, LS Mean Difference", "setting": "MSA-P", "result": "−2.7"}, {"measurement": "OHSA composite score, LS Mean", "setting": "Male", "result": "−0.3923"}, {"measurement": "OHSA composite score, Mean", "setting": "Male", "result": "−0.46"}, {"measurement": "OHSA composite score, Median", "setting": "Male", "result": 0.20}, {"measurement": "OHSA composite score, LS Mean Difference", "setting": "Male", "result": "−1.8762"}, {"measurement": "OHDAS item 1 (standing for a short time) score, LS Mean", "setting": "Male", "result": "−1.2"}, {"measurement": "OHDAS item 1 (standing for a short time) score, Mean", "setting": "Male", "result": "−0.8"}, {"measurement": "OHDAS item 1 (standing for a short time) score, Median", "setting": "Male", "result": 0.0}, {"measurement": "OHDAS item 1 (standing for a short time) score, LS Mean Difference", "setting": "Male", "result": "−2.8"}, {"measurement": "OHSA composite score, Mean", "setting": "Overall", "result": "−0.05"}, {"measurement": "OHSA composite score, Median", "setting": "Overall", "result": 0.05}, {"measurement": "OHSA composite score, LS Mean", "setting": "Overall, placebo 1.54, p=0.0056", "result": "−0.03"}, {"measurement": "OHSA composite score, LS Mean Difference", "setting": "Overall", "result": "−1.57"}, {"measurement": "OHDAS item 1 (standing for a short time) score, LS Mean", "setting": "Overall", "result": "−0.4"}, {"measurement": "OHDAS item 1 (standing for a short time) score, Mean", "setting": "Overall", "result": "−0.2"}, {"measurement": "OHDAS item 1 (standing for a short time) score, Median", "setting": "Overall", "result": 0.0}, {"measurement": "OHDAS item 1 (standing for a short time) score, LS Mean Difference", "setting": "Overall", "result": "−2.0"}, {"measurement": "OHSA composite score, LS Mean", "setting": "Pre treatment baseline OHSA1 <7", "result": "−0.22"}]}]}
